Marks after values point to notes of the source that are not given here.
Tests used:
[1] = tested on: mayflies Hexagenia spp.; test: 21 d range-finding sediment test, mayflies; format: in vivo; conditions: n = 3
Protocol: (§1) Range-finding tests of 21 d were completed with juvenile mussels, amphipods and mayflies to assist with the selection of the concentrations to be used in final testing. Nominal concentrations in range-finding tests were 0.1, 1, 10, 100, and 1000 mg/kg, based on dry weight of sediment. Range-finding test conditions were identical to those described in the manuscript for chronic sediment tests with the exception of test duration.
At the end of the test, survival and wet weight of mayflies in each replicate were recorded.

[2] = tested on: amphipod Hyalella azteca; test: Chronic 42-day sediment test with amphipods (survival, growth, reproduction, sex ratio); conditions: for Females (percent of surviving amphipods), mean (SEM) / Survival (percent of initial animals added), mean (SEM): n = 10
Protocol: Dechlorinated municipal tap water was used for cultures and toxicity tests. Both cultures and toxicity tests were held at 25 °C with a photoperiod of 16 h light:8 h dark, and amphipods were fed finely ground Tetra-Min fish food flakes (Tetra GMBH, Melle, Germany). Juvenile amphipods were removed weekly from breeding containers and used in toxicity tests.
Two tests were conducted for each compound. Amphipods were fed ground Tetra-Min twice per week during weeks 1 and 2, three times during week 3, and 5 mg three times per week during weeks 4 to 6. Surviving adults were counted, weighed as a group, and examined under a dissecting microscope to identify males (enlarged second gnathopods) and females, and the number of juveniles was recorded.

[3] = tested on: amphipods H. azteca; test: 21 d range-finding sediment test, amphipods; format: in vivo, Hyalella azteca; conditions: n = 3
Protocol: as §1
Amphipods were fed 2.5 mg Tetra-min twice per week during weeks one and two, and three times during week three. At the end of the test, amphipods were removed and the survivors were counted and weighed.

[4] = tested on: juvenile mussels L. siliquoidea; test: 21 d range-finding sediment test, juvenile mussels; format: in vivo; conditions: n = 3
Protocol: as §1
After 21 d, mussels were recovered and transferred to Petri dishes filled with clean sand and housed in large trays of aerated culture water to assess burial ability.

[5] = tested on: rainbow trout (Oncorhynchus mykiss); conditions: ref FDA-CDER [1996]; cited from earlier work
[6] = tested on: Lampsilis siliquoidea glochidia; test: Acute 48 h aqueous toxicity test with glochidia (viability); format: in vivo; conditions: Lampsilis siliquoidea, in vivo, 48 h
Source text: (§2) Aqueous acute toxicity tests were based on the American Society for Testing and Materials (ASTM [2013]) protocols for conducting toxicity tests with early life stages of freshwater mussels. Gravid female L. siliquoidea were collected from an established reference site in the Maitland River (ON) and kept in ECCC’s Aquatic Life Research Facility (Canada Centre for Inland Waters, Burlington, ON). Glochidia were removed from gravid females and their viability (i.e., ability to close their valves) was assessed. Glochidia from a minimum of three gravid mussels whose glochidia exceeded 90% viability were pooled and exposed to a geometric series of nominal concentrations (0, 0.0025, 0.025, 0.25, 2.5, 25 mg/L) of either FIN or MGA plus a solvent control. Tests were conducted in 250-mL glass beakers (unaerated and unfed) with culture water. After 24 and 48 h of exposure, glochidia viability was assessed in a minimum of 100 glochidia per replicate (four replicates). Water samples were collected at the beginning and end of the tests, and frozen pending chemical analysis.

[7] = as above; format: in vivo, Lampsilis siliquoidea; conditions: Lampsilis siliquoidea, in vivo
Source text: as §2

[8] = tested on: Daphnia magna; conditions: ref FDA-CDER [1996]; cited from earlier work
[9] = tested on: juvenile Lampsilis siliquoidea; test: Chronic 28-day spiked sediment test with juvenile mussels (survival, burial ability); conditions: for Burial ability (percent of surviving mussels), mean (SEM) / Survival (percent of initial animals added), mean (SEM): n = 5
Source text: Freshwater mussels (L. siliquoidea, 6–8 months old, ~ 1 cm in length) were purchased from Missouri State University (Springfield, MO, USA).

[10] = tested on: mayfly Hexagenia spp.; test: Chronic 42-day sediment test with mayflies (survival, growth); conditions: measured, n = 6
Protocol: (§3) Nominal concentrations were 10, 30, 100, 300, and 1000 mg/kg for juvenile freshwater mussels and 3, 10, 30, 100, and 300 mg/kg for amphipods and mayflies, and were based on the results of range-finding tests (detailed in Supplementary Materials). […] For each PPCP, the concentration of solvent used was consistent across treatments.
(§4) The sediments were mixed for 24 h, left open in a fume hood for 3–5 days for the acetone to evaporate, and then stored at 4 °C until use. […] All beakers were aerated for 1 week under testing conditions prior to the addition of organisms, and throughout the tests. Duration of toxicity tests varied depending on the species and endpoint of interest (see below). Water quality parameters were collected for each test (Table S1).
(§5) Briefly, eggs of Hexagenia spp. […] Prior to testing, eggs were hatched and nymphs were grown in aerated 20-L aquaria containing culture sediment (depth: 2.5 cm) and culture water (depth: 10 cm) for 6 to 7 weeks.
(§6) Ten mayflies (5–8 mg wet weight) were added to each beaker (three replicates for each control and PPCP concentration). Two tests were conducted for each compound. […] At the end of the test, mayflies were removed and surviving animals from each of the three replicates were counted and weighed.

[11] = tested on: mayfly Hexagenia spp.; conditions: Hexagenia spp. (mixture of H. rigida and H. limbata), in vivo, 42 days, pH 8.3
Protocol: as §3, §4, §5, §6

[12] = tested on: fathead minnow (Pimephales promelas); design: method as in Lalone et al. [2013]; conditions: 21-day exposure; ref Lalone et al. [2013]; cited from earlier work
[13] = tested on: Japanese medaka (Oryzias latipes); design: method as in Lalone et al. [2013]; conditions: 21-day exposure; ref Lalone et al. [2013]; cited from earlier work
[14] = tested on: Daphnia magna; design: method as in Lalone et al. [2013]; conditions: 21-day exposure to as much as 500 μg/L; ref Lalone et al. [2013]; cited from earlier work
[15] = finasteride 1 mg/kg dw sediment (0.003 mg/L water), measured, 42-day
[16] = finasteride 4 mg/kg dw sediment (0.03 mg/L water), measured, 42-day
[17] = finasteride 11 mg/kg dw sediment (0.1 mg/L water), measured, 42-day
[18] = finasteride 35 mg/kg dw sediment (0.5 mg/L water), measured, 42-day
[19] = finasteride 96 mg/kg dw sediment (2 mg/L water), measured, 42-day
[20] = survival, growth, 42-day, dry weight sediment, measured
[21] = finasteride 4 mg/kg dw sediment (0.03 mg/L water), measured
[22] = finasteride 11 mg/kg dw sediment (0.1 mg/L water), measured
[23] = finasteride 35 mg/kg dw sediment (0.5 mg/L water), measured
[24] = finasteride 96 mg/kg dw sediment (2 mg/L water), measured
[25] = finasteride 430 mg/kg dw sediment (20 mg/L water), measured
[26] = survival, dry weight sediment, measured
[27] = survival, overlying water, measured

CC(C)(C)NC(=O)[C@H]1CC[C@H]2[C@@H]3CC[C@H]4NC(=O)C=C[C@]4(C)[C@H]3CC[C@]12C [Finasteride]
Growth, mean (SEM) ([1]; 0.1 mg/kg dry weight nominal): 30 (0.5) mg wet weight
Survival (%), mean (SEM) ([1]; 0.1 mg/kg dry weight nominal): 100 (0.0) %
Growth, mean (SEM) ([1]; 1 mg/kg dry weight nominal): 30 (0.6) mg wet weight
Survival (%), mean (SEM) ([1]; 1 mg/kg dry weight nominal): 100 (0.0) %
Growth, mean (SEM) ([1]; 10 mg/kg dry weight nominal): 31 (0.3) mg wet weight
Survival (%), mean (SEM) ([1]; 10 mg/kg dry weight nominal): 100 (0.0) %
Growth, mean (SEM) ([1]; 100 mg/kg dry weight nominal): 29 (1.3) mg wet weight
Survival (%), mean (SEM) ([1]; 100 mg/kg dry weight nominal): 93 (3.3)^a %
Growth, mean (SEM) ([1]; 1000 mg/kg dry weight nominal): 4.5^a,^d (0.0) mg wet weight
Survival (%), mean (SEM) ([1]; 1000 mg/kg dry weight nominal): 3.3^a (3.3) %
Survival, % of pooled controls ([2]; 96 mg/kg (2 mg/L) FIN, 42-day): 65%
NOEC, overlying water ([2]; Hyalella azteca, in vivo, 42 days, pH 8.3): 0.5 mg/L
Females (percent of surviving amphipods), mean (SEM) [2, 15]: 57 (4.2) %
Survival (percent of initial animals added), mean (SEM) [2, 15]: 96 (1.4) %
Females (percent of surviving amphipods), mean (SEM) [2, 16]: 53 (3.0) %
Survival (percent of initial animals added), mean (SEM) [2, 16]: 93 (1.7) %
Females (percent of surviving amphipods), mean (SEM) [2, 17]: 50 (4.4) %
Survival (percent of initial animals added), mean (SEM) [2, 17]: 94 (1.7) %
Females (percent of surviving amphipods), mean (SEM) [2, 18]: 52 (2.7) %
Survival (percent of initial animals added), mean (SEM) [2, 18]: 92 (2.0) %
Females (percent of surviving amphipods), mean (SEM) [2, 19]: 69 (4.4)^d %
Survival (percent of initial animals added), mean (SEM) [2, 19]: 63 (8.3)^d %
ChV, sediment ([2]; survival, growth, 42-day, dry weight sediment): 58 mg/kg
LOEC, sediment [2, 20]: 96 mg/kg
NOEC, sediment [2, 20]: 35 mg/kg
ChV, overlying water ([2]; survival, growth, 42-day, overlying water): 1 mg/L
LOEC, overlying water ([2]; survival, growth, 42-day, overlying water, measured): 2 mg/L
Growth, mean (SEM) ([3]; 0.1 mg/kg dry weight nominal): 1.1 (0.12) mg wet weight
Survival (%), mean (SEM) ([3]; 0.1 mg/kg dry weight nominal): 100 (0.0) %
Growth, mean (SEM) ([3]; 1 mg/kg dry weight nominal): 1.1 (0.04) mg wet weight
Survival (%), mean (SEM) ([3]; 1 mg/kg dry weight nominal): 100 (0.0) %
Growth, mean (SEM) ([3]; 10 mg/kg dry weight nominal): 1.2 (0.05) mg wet weight
Survival (%), mean (SEM) ([3]; 10 mg/kg dry weight nominal): 100 (0.0) %
Growth, mean (SEM) ([3]; 100 mg/kg dry weight nominal): 0.79 (0.06) mg wet weight
Survival (%), mean (SEM) ([3]; 100 mg/kg dry weight nominal): 100 (0.0) %
Survival (%), mean (SEM) ([3]; 1000 mg/kg dry weight nominal): 0^a (0.0) %
Burial (%), mean (SEM) ([4]; 0.1 mg/kg dry weight nominal): 72 (6.3) %
Survival (%), mean (SEM) ([4]; 0.1 mg/kg dry weight nominal): 100 (0.0) %
Burial (%), mean (SEM) ([4]; 1 mg/kg dry weight nominal): 93 (3.3) %
Survival (%), mean (SEM) ([4]; 1 mg/kg dry weight nominal): 100 (0.0) %
Burial (%), mean (SEM) ([4]; 10 mg/kg dry weight nominal): 87 (6.7) %
Survival (%), mean (SEM) ([4]; 10 mg/kg dry weight nominal): 100 (0.0) %
Burial (%), mean (SEM) ([4]; 100 mg/kg dry weight nominal): 90 (0.0) %
Survival (%), mean (SEM) ([4]; 100 mg/kg dry weight nominal): 100 (0.0) %
Burial (%), mean (SEM) ([4]; 1000 mg/kg dry weight nominal): 77 (5.1) %
Survival (%), mean (SEM) ([4]; 1000 mg/kg dry weight nominal): 53 (6.7)^a %
96-h LC50 [5]: 20 µg/mL
ChV (geometric mean of NOEC and LOEC) [6]: 7.6 mg/L
LOEC [6]: 23 mg/L^a
NOEC [6]: 2.5 mg/L
viability at 48 h, 0.003 mg/L [7]: 90%
viability at 48 h, 0.03 mg/L [7]: 87%
viability at 48 h, 0.3 mg/L [7]: 87%
viability at 48 h, 2.5 mg/L [7]: 88%
viability at 48 h, 23 mg/L [7]: 85%
96-h LC50 [8]: 21 µg/mL
Burial ability (percent of surviving mussels), mean (SEM) [9, 21]: 90 (5.5) %
Survival (percent of initial animals added), mean (SEM) [9, 21]: 94 (2.4) %
Burial ability (percent of surviving mussels), mean (SEM) [9, 22]: 98 (2.0) %
Survival (percent of initial animals added), mean (SEM) [9, 22]: 94 (4.0) %
Burial ability (percent of surviving mussels), mean (SEM) [9, 23]: 88 (4.0) %
Survival (percent of initial animals added), mean (SEM) [9, 23]: 98 (2.0) %
Burial ability (percent of surviving mussels), mean (SEM) [9, 24]: 82 (5.5) %
Survival (percent of initial animals added), mean (SEM) [9, 24]: 72 (8.6)^d %
Burial ability (percent of surviving mussels), mean (SEM) [9, 25]: 0 (0)^d %
Survival (percent of initial animals added), mean (SEM) [9, 25]: 10 (5.5)^d %
Overlying water concentration at which both survival and burial ability were reduced ([9]; measured): 20 mg/L
Sediment concentration at which both survival and burial ability were reduced ([9]; measured): 430 mg/kg
ChV, sediment ([9]; survival, dry weight sediment): 58 mg/kg
LOEC, sediment [9, 26]: 96 mg/kg
NOEC, sediment [9, 26]: 35 mg/kg
ChV, overlying water ([9]; survival, overlying water): 1 mg/L
LOEC, overlying water [9, 27]: 2 mg/L
NOEC, overlying water [9, 27]: 0.5 mg/L
Survival (percent of initial animals added), mean (SEM) ([10]; finasteride 1 mg/kg dw sediment (0.003 mg/L water)): 98 (1.7) %
Survival (percent of initial animals added), mean (SEM) ([10]; finasteride 4 mg/kg dw sediment (0.03 mg/L water)): 97 (2.1) %
Survival (percent of initial animals added), mean (SEM) ([10]; finasteride 11 mg/kg dw sediment (0.1 mg/L water)): 100 (0.0) %
Survival (percent of initial animals added), mean (SEM) ([10]; finasteride 35 mg/kg dw sediment (0.5 mg/L water)): 90 (2.6)^d,i %
Survival (percent of initial animals added), mean (SEM) ([10]; finasteride 96 mg/kg dw sediment (2 mg/L water)): 97 (2.1) %
ChV, overlying water [11]: 1 mg/L
LOEC, overlying water [11]: 2 mg/L
LOEC, sediment [11]: 96 mg/kg
NOEC, overlying water [11]: 0.5 mg/L
NOEC, sediment [11]: 35 mg/kg

CC(=O)S[C@@H]1CC2=CC(=O)CC[C@]2(C)[C@H]2CC[C@@]3(C)[C@@H](CC[C@@]34CCC(=O)O4)[C@H]12 [spironolactone]
Concentration that reduced fecundity [12]: 50 ng/mL
Concentration that reduced fecundity [13]: 50 ng/mL
Effect on reproduction [14]: no effect
